Data published in PubChem BioAssay AID1259407 (Chemical Carcinogenesis Research Information System (CCRIS), 2018).
The source made the active and inactive calls. How the calls were made is not given here.

System: CCRIS mutagenicity, Ames/micronucleus/aberration tests
Experiment: CCRIS mutagenicity studies
[1] = Test System: AMES SALMONELLA TYPHIMURIUM, Strain/Indicator: TA100, Metabolic Activation: NONE, Method: STANDARD PLATE

With COC(=O)c1ccc(C(=O)OC)cc1 the mutagenic call (End Point: IN VITRO CHROMOSOMAL ABERRATIONS, Test System: CHO-LB CELLS, Metabolic Activation: NONE) was “inactive; negative”, the mutagenic call (End Point: IN VITRO CHROMOSOMAL ABERRATIONS, Test System: CHO-LB CELLS, Metabolic Activation: RAT, LIVER, S-9, AROCLOR 1254) was “inactive; negative” and the mutagenic call (Test System: AMES SALMONELLA TYPHIMURIUM, Strain/Indicator: TA98, Metabolic Activation: HAMSTER, LIVER, S-9, AROCLOR 1254 (10%), Method: PREINCUBATION) was “inactive; negative”. For the same molecule, the mutagenic call (Test System: AMES SALMONELLA TYPHIMURIUM, Strain/Indicator: TA98, Metabolic Activation: NONE, Method: PREINCUBATION) was “inactive; negative”, the mutagenic call (Test System: AMES SALMONELLA TYPHIMURIUM, Strain/Indicator: TA98, Metabolic Activation: NONE, Method: STANDARD PLATE) was “inactive; negative” and the mutagenic call (Test System: AMES SALMONELLA TYPHIMURIUM, Strain/Indicator: TA98, Metabolic Activation: RAT LIVER S-9, AROCLOR 1254, Method: STANDARD PLATE) was “inactive; negative”. The mutagenic call (Test System: AMES SALMONELLA TYPHIMURIUM, Strain/Indicator: TA98, Metabolic Activation: RAT LIVER S-9, PHENOBARBITAL AND BETA-NAPHTHOFLAVONE, Method: PREINCUBATION) was “inactive; negative”, the mutagenic call (Test System: AMES SALMONELLA TYPHIMURIUM, Strain/Indicator: TA98, Metabolic Activation: RAT, LIVER, S-9, AROCLOR 1254 (10%), Method: PREINCUBATION) was “inactive; negative” and the mutagenic call (Test System: AMES SALMONELLA TYPHIMURIUM, Strain/Indicator: TA98, Metabolic Activation: RAT, LIVER, S-9, AROCLOR 1254, Method: STANDARD PLATE) was “inactive; negative”. For the same molecule, the mutagenic call (Test System: AMES SALMONELLA TYPHIMURIUM, Strain/Indicator: TA98, Metabolic Activation: S-9, Method: STANDARD PLATE) was “inactive; negative”, the mutagenic call (Test System: AMES SALMONELLA TYPHIMURIUM, Strain/Indicator: TA100, Metabolic Activation: HAMSTER, LIVER, S-9, AROCLOR 1254 (10%), Method: PREINCUBATION) was “inactive; negative” and the mutagenic call (Test System: AMES SALMONELLA TYPHIMURIUM, Strain/Indicator: TA100, Metabolic Activation: NONE, Method: PREINCUBATION) was “inactive; negative”. The mutagenic call [1] was “inactive; negative”, the mutagenic call (Test System: AMES SALMONELLA TYPHIMURIUM, Strain/Indicator: TA100, Metabolic Activation: RAT LIVER S-9, AROCLOR 1254, Method: STANDARD PLATE) was “inactive; negative” and the mutagenic call (Test System: AMES SALMONELLA TYPHIMURIUM, Strain/Indicator: TA100, Metabolic Activation: RAT LIVER S-9, PHENOBARBITAL AND BETA-NAPHTHOFLAVONE, Method: PREINCUBATION) was “inactive; negative”. For the same molecule, the mutagenic call (Test System: AMES SALMONELLA TYPHIMURIUM, Strain/Indicator: TA100, Metabolic Activation: RAT, LIVER, S-9, AROCLOR 1254 (10%), Method: PREINCUBATION) was “inactive; negative”, the mutagenic call (Test System: AMES SALMONELLA TYPHIMURIUM, Strain/Indicator: TA100, Metabolic Activation: RAT, LIVER, S-9, AROCLOR 1254, Method: STANDARD PLATE) was “inactive; negative” and the mutagenic call (Test System: AMES SALMONELLA TYPHIMURIUM, Strain/Indicator: TA100, Metabolic Activation: S-9, Method: STANDARD PLATE) was “inactive; negative”. The mutagenic call (Test System: AMES SALMONELLA TYPHIMURIUM, Strain/Indicator: TA102, Metabolic Activation: NONE, Method: STANDARD PLATE) was “inactive; negative”, the mutagenic call (Test System: AMES SALMONELLA TYPHIMURIUM, Strain/Indicator: TA102, Metabolic Activation: S-9, Method: STANDARD PLATE) was “inactive; negative” and the mutagenic call (Test System: AMES SALMONELLA TYPHIMURIUM, Strain/Indicator: TA1535, Metabolic Activation: HAMSTER, LIVER, S-9, AROCLOR 1254 (10%), Method: PREINCUBATION) was “inactive; negative”. For the same molecule, the mutagenic call (Test System: AMES SALMONELLA TYPHIMURIUM, Strain/Indicator: TA1535, Metabolic Activation: NONE, Method: PREINCUBATION) was “inactive; negative”, the mutagenic call (Test System: AMES SALMONELLA TYPHIMURIUM, Strain/Indicator: TA1535, Metabolic Activation: NONE, Method: STANDARD PLATE) was “inactive; negative” and the mutagenic call (Test System: AMES SALMONELLA TYPHIMURIUM, Strain/Indicator: TA1535, Metabolic Activation: RAT LIVER S-9, AROCLOR 1254, Method: STANDARD PLATE) was “inactive; negative”. For the same molecule, the mutagenic call (Test System: AMES SALMONELLA TYPHIMURIUM, Strain/Indicator: TA1535, Metabolic Activation: RAT LIVER S-9, PHENOBARBITAL AND BETA-NAPHTHOFLAVONE, Method: PREINCUBATION) was “inactive; negative”, the mutagenic call (Test System: AMES SALMONELLA TYPHIMURIUM, Strain/Indicator: TA1535, Metabolic Activation: RAT, LIVER, S-9, AROCLOR 1254 (10%), Method: PREINCUBATION) was “inactive; negative” and the mutagenic call (Test System: AMES SALMONELLA TYPHIMURIUM, Strain/Indicator: TA1535, Metabolic Activation: RAT, LIVER, S-9, AROCLOR 1254, Method: STANDARD PLATE) was “inactive; negative”. For the same molecule, the mutagenic call (Test System: AMES SALMONELLA TYPHIMURIUM, Strain/Indicator: TA1535, Metabolic Activation: S-9, Method: STANDARD PLATE) was “inactive; negative”, the mutagenic call (Test System: AMES SALMONELLA TYPHIMURIUM, Strain/Indicator: TA1537, Metabolic Activation: HAMSTER, LIVER, S-9, AROCLOR 1254 (10%), Method: PREINCUBATION) was “inactive; negative” and the mutagenic call (Test System: AMES SALMONELLA TYPHIMURIUM, Strain/Indicator: TA1537, Metabolic Activation: NONE, Method: PREINCUBATION) was “inactive; negative”. For the same molecule, the mutagenic call (Test System: AMES SALMONELLA TYPHIMURIUM, Strain/Indicator: TA1537, Metabolic Activation: NONE, Method: STANDARD PLATE) was “inactive; negative”, the mutagenic call (Test System: AMES SALMONELLA TYPHIMURIUM, Strain/Indicator: TA1537, Metabolic Activation: RAT LIVER S-9, AROCLOR 1254, Method: STANDARD PLATE) was “inactive; negative” and the mutagenic call (Test System: AMES SALMONELLA TYPHIMURIUM, Strain/Indicator: TA1537, Metabolic Activation: RAT LIVER S-9, PHENOBARBITAL AND BETA-NAPHTHOFLAVONE, Method: PREINCUBATION) was “inactive; negative”. For the same molecule, the mutagenic call (Test System: AMES SALMONELLA TYPHIMURIUM, Strain/Indicator: TA1537, Metabolic Activation: RAT, LIVER, S-9, AROCLOR 1254 (10%), Method: PREINCUBATION) was “inactive; negative”, the mutagenic call (Test System: AMES SALMONELLA TYPHIMURIUM, Strain/Indicator: TA1537, Metabolic Activation: RAT, LIVER, S-9, AROCLOR 1254, Method: STANDARD PLATE) was “inactive; negative” and the mutagenic call (Test System: AMES SALMONELLA TYPHIMURIUM, Strain/Indicator: TA1537, Metabolic Activation: S-9, Method: STANDARD PLATE) was “inactive; negative”. For the same molecule, the mutagenic call (Test System: AMES SALMONELLA TYPHIMURIUM, Strain/Indicator: TA1538, Metabolic Activation: NONE, Method: PREINCUBATION) was “inactive; negative”, the mutagenic call (Test System: AMES SALMONELLA TYPHIMURIUM, Strain/Indicator: TA1538, Metabolic Activation: NONE, Method: STANDARD PLATE) was “inactive; negative” and the mutagenic call (Test System: AMES SALMONELLA TYPHIMURIUM, Strain/Indicator: TA1538, Metabolic Activation: RAT LIVER S-9, AROCLOR 1254, Method: STANDARD PLATE) was “inactive; negative”. For the same molecule, the mutagenic call (Test System: AMES SALMONELLA TYPHIMURIUM, Strain/Indicator: TA1538, Metabolic Activation: RAT LIVER S-9, PHENOBARBITAL AND BETA-NAPHTHOFLAVONE, Method: PREINCUBATION) was “inactive; negative”, the mutagenic call (Test System: AMES SALMONELLA TYPHIMURIUM, Strain/Indicator: TA1538, Metabolic Activation: RAT, LIVER, S-9, AROCLOR 1254, Method: STANDARD PLATE) was “inactive; negative” and the mutagenic call (Test System: AMES SALMONELLA TYPHIMURIUM, Strain/Indicator: TA1538, Metabolic Activation: S-9, Method: STANDARD PLATE) was “inactive; negative”. The mutagenic call (Test System: E.COLI, Strain/Indicator: WP2UVRA, Metabolic Activation: NONE, Method: PREINCUBATION) was “inactive; negative”, the mutagenic call (Test System: E.COLI, Strain/Indicator: WP2UVRA, Metabolic Activation: RAT LIVER S-9, PHENOBARBITAL AND BETA-NAPHTHOFLAVONE, Method: PREINCUBATION) was “inactive; negative” and the mutagenic call (Test System: UDS HUMAN HELA CELLS, Strain/Indicator: THYMIDINE INCORPORATION, Metabolic Activation: NONE, Method: LIQUID SCINTILLATION COUNTING) was “inactive; negative”.
With CN(C)CCOc1ccc(/C(=C(/CCCl)c2ccccc2)c2ccccc2)cc1 the mutagenic call (End Point: IN VITRO CHROMOSOMAL ABERRATIONS, Test System: SYRIAN HAMSTER EMBRYO (SHE) CELLS, Metabolic Activation: NONE) was “active; positive (ploidy changes)”.
O=c1cc[nH]c2ccccc12 was tested, and the mutagenic call [1] was “inactive; negative” and the mutagenic call (Test System: AMES SALMONELLA TYPHIMURIUM, Strain/Indicator: TA100, Metabolic Activation: RAT, LIVER, S-9, AROCLOR 1254 (10% OR 20%), Method: STANDARD PLATE) was “inactive; negative”.
